Measurements from ChEMBL document CHEMBL5321289, “Establishment of an MR1 Presentation Reporter Screening System and Identification of Phenylpropanoid Derivatives as MR1 Ligands” (J Med Chem, 2023).
Calls of active or inactive are those of the source. The rule behind the calls is not given here.

Key:
HeLa [1] = assay: Induction of cell surface translocation of MR1 in human HeLa overexpressing MR1 assessed as increase in MR1 cell surface levels at 10 uM incubated for 8 hrs followed by labeling with PE-conjugated anti-hMR1 antibody by flow cytometry analysis; type: functional, cell-based
TG40 cell [2] = assay: Activation of mouse TG40 cells transfected with MAIT-alpha/betaTCR co-cultured with human HeLa cells overexpressing human MR1 assessed as upregulation of CD69 surface expression […] at 10 uM incubated for 24 hrs by flow cytometry; type: functional, cell-based
HeLa [3] = assay: Induction of cell surface translocation of MR1 in human HeLa overexpressing MR1 assessed as increase in MR1 cell surface levels at 0.1 to 10 uM incubated for 8 hrs followed by labeling with PE-conjugated anti-hMR1 antibody by flow cytometry analysis; type: functional, cell-based; conditions: dose 0.1-10 µM
TG40 cell [4] = assay: Activation of mouse TG40 cells transfected with MAIT-alpha/betaTCR co-cultured with human HEK293 cells expressing N-terminal HiBit-tagged human beta2m/MR1 assessed as upregulation of CD69 surface expression on TG40 cells at 1 uM incubated for 24 hrs by flow cytometry; type: functional, cell-based
TG40 cell [5] = assay: Activation of mouse TG40 cells transfected with MAIT-alpha/betaTCR co-cultured with human […] expressing N-terminal HiBit-tagged human beta2m/MR1 assessed as upregulation of CD69 surface expression […] at 1 uM incubated for 24 hrs by flow cytometry; type: functional, cell-based
HEK293 = assay: Induction of cell surface translocation of MR1 in human HEK293 cells expressing N-terminal HiBit-tagged human beta2m/MR1 assessed as increase in MR1 cell surface expression level at 10 uM incubated for 8 hrs followed by labeling with PE-conjugated anti-hMR1 antibody by flow cytometry analysis; type: functional, cell-based
HeLa [6] = assay: Effect on MR1-specific presentation in human HeLa overexpressing MR1 assessed as increase in HLA-A/B/C cell surface levels incubated for 8 hrs followed by labeling with PE-conjugated anti-hMR1 antibody and APC-conjugated anti-HLA-A/B/C antibody by flow cytometry analysis; type: functional, cell-based
HeLa [7] = assay: Cytotoxicity against human HeLa cells overexpressing MR1 assessed as reduction in cell viability at 3 to 100 uM incubated for 24 hrs by MTS assay; type: toxicity, cell-based; conditions: dose 3-100 µM
[8] = Cytotoxicity against mouse TG40 cells transfected with MAIT-alpha/betaTCR assessed as reduction in cell viability at 30 to 100 uM incubated for 24 hrs by MTS assay; type: toxicity, cell-based; conditions: dose 30-100 µM
[9] = Induction of cell surface translocation of MR1 in human HeLa overexpressing MR1 assessed as increase in MR1 cell surface levels incubated for 8 hrs followed by labeling with PE-conjugated anti-hMR1 antibody by flow cytometry analysis; type: functional, cell-based
HeLa [10] = assay: Cytotoxicity against human HeLa cells overexpressing MR1 assessed as reduction in cell viability at 3 to 100 uM incubated for 8 hrs by MTS assay; type: toxicity, cell-based; conditions: dose 3-100 µM
TG40 cell [11] = assay: Activation of mouse TG40 cells transfected with MAIT-alpha/betaTCR co-cultured with human HEK293 cells expressing N-terminal HiBit-tagged human beta2m/MR1 assessed as upregulation of CD69 surface expression on TG40 cells at 10 uM incubated for 24 hrs by flow cytometry; type: functional, cell-based
[12] = Inhibition of 5-OR-RU induced activation of mouse TG40 cells transfected with MAIT-alpha/betaTCR co-cultured with human HeLa cells overexpressing human MR1 assessed as upregulation of CD69 surface expression […] incubated for 24 hrs by flow cytometry; type: functional, cell-based; conditions: TG40 cell
[13] = Cytotoxicity against mouse TG40 cells transfected with MAIT-alpha/betaTCR assessed as reduction in cell viability at 3 to 10 uM incubated for 24 hrs by MTS assay; type: toxicity, cell-based; conditions: dose 3-10 µM

SMILES: COc1ccc(/C=C/C=O)cc1
- Activity (HeLa [1]): inactive

SMILES: COc1cc(/C=C/C=O)c[nH]c1=O
- Activity (HeLa [1]): inactive

SMILES: COc1cc(/C=C/C=O)c(OC)c2c1OCO2
- Activity (HeLa [1]): inactive

SMILES: COc1cc(CCC=O)ccc1O
- Activity (HeLa [1]): inactive

SMILES: Cc1ccc(/C=C/C=O)cc1
- Activity (HeLa [1]): inactive

SMILES: COc1ccc(/C=C/C=O)cc1O
- Activity (HeLa [1]): inactive

SMILES: COc1cc(/C=C/C=O)cc(OC)c1O
- Activity (HeLa [1]): inactive

SMILES: COc1cc(/C=C/C(=O)O)ccc1O
- Activity (HeLa [1]): inactive

SMILES: CC(C)(C)c1cc(C=O)c(O)c(C=O)c1
- Activity (TG40 cell [2]): inactive
- Activity (HeLa [3]): Dose-Dependent Effect

SMILES: COc1ccc(O)c(/C=C/C=O)c1
- Activity (HeLa [1]): inactive

SMILES: O=Cc1ccccc1C#C/C=C/CO
- Activity (TG40 cell [2]): inactive
- Activity (HeLa [3]): Dose-Dependent Effect

SMILES: CC(=O)/C=N/c1c(NC[C@H](O)[C@H](O)[C@H](O)CO)[nH]c(=O)[nH]c1=O
- Activity (TG40 cell [4]): Active
- Activity (TG40 cell [5]): inactive
- Activity (HEK293): Active

SMILES: O=C/C=C/c1ccc(O)cc1
- Activity (HeLa [1]): inactive

SMILES: COc1ccc(/C=C(\C)C=O)cc1
- Activity (HeLa [1]): inactive

SMILES: CC(=O)Nc1nc(O)c2nc(C=O)cnc2n1
- Activity (HeLa [6]): inactive
- Activity (HeLa [7]): Non-Toxic
- Activity [8]: Toxic
- EC50 [9]: 0.153 µM
- Activity (HeLa [10]): Non-Toxic
- Activity (TG40 cell [11]): inactive
- IC50 [12]: 0.017 µM
- Activity [13]: Non-Toxic
- Activity (HEK293): Active

SMILES: O=C/C=C/c1ccccc1
- Activity (HeLa [1]): inactive

SMILES: O=Cc1ccc(O)c(C(=O)O)c1
- Activity (HEK293): Active

SMILES: COc1cc(/C=C/C=C/C=O)ccc1O
- Activity (HeLa [1]): inactive

SMILES: COc1cc(/C=C/C=O)c(OC)cc1O
- Activity (HeLa [6]): inactive
- Activity (HeLa [7]): Non-Toxic
- Activity [8]: Toxic
- Activity (HeLa [1]): Active
- Activity (TG40 cell [2]): inactive
- EC50 [9]: 3.89 µM
- Activity (HeLa [10]): Non-Toxic
- IC50 [12]: 7.34 µM
- Activity [13]: Non-Toxic

SMILES: Nc1nc2ncc(C=O)nc2c(=O)[nH]1
- Activity (HeLa [7]): Non-Toxic
- Activity [8]: Toxic
- EC50 [9]: 1.63 µM
- Activity (HeLa [10]): Non-Toxic
- IC50 [12]: 0.505 µM
- Activity [13]: Non-Toxic

SMILES: COc1cc(C#C[Si](C)(C)C)c(C=O)cc1OC
- Activity (TG40 cell [2]): inactive
- Activity (HeLa [3]): Dose-Dependent Effect

SMILES: O=C/C=C/c1ccccc1O
- Activity (HeLa [1]): inactive

SMILES: COc1cc(/C=C/C=O)cc2c1OCO2
- Activity (HeLa [1]): inactive

SMILES: COc1cccc(/C=C/C=O)c1
- Activity (HeLa [1]): inactive

SMILES: COc1cc(O)ccc1/C=C/C=O
- Activity (HeLa [6]): inactive
- Activity (HeLa [7]): Non-Toxic
- Activity [8]: Toxic
- Activity (HeLa [1]): Active
- Activity (TG40 cell [2]): inactive
- EC50 [9]: 5.27 µM
- Activity (HeLa [10]): Non-Toxic
- IC50 [12]: 7.93 µM
- Activity [13]: Non-Toxic

SMILES: COc1ccccc1/C=C/C=O
- Activity (HeLa [1]): inactive

SMILES: COc1cc(I)c(C=O)cc1OC
- Activity (TG40 cell [2]): inactive
- Activity (HeLa [3]): Dose-Dependent Effect

SMILES: COc1cc(/C=C/C#N)ccc1O
- Activity (HeLa [1]): inactive

SMILES: O=C/C=C/c1ccc(O)c(O)c1 [CAFFEOYL ALDEHYDE]
- Activity (HeLa [6]): inactive
- Activity (HeLa [7]): Non-Toxic
- Activity [8]: Toxic
- Activity (HeLa [1]): Active
- Activity (TG40 cell [2]): inactive
- EC50 [9]: 2.58 µM
- Activity (HeLa [10]): Non-Toxic
- Activity [13]: Non-Toxic

SMILES: COCCOC(=O)/C(=C\c1cc(C(C)(C)C)c(O)c(C(C)(C)C)c1)C(C)=O
- Activity (TG40 cell [2]): inactive
- Activity (HeLa [3]): Dose-Dependent Effect

SMILES: O=Cc1c(O)cccc1I
- Activity (TG40 cell [2]): inactive
- Activity (HeLa [3]): Dose-Dependent Effect

SMILES: COc1cc(/C=C/C=O)ccc1O [CONIFERYL ALDEHYDE]
- Activity (HeLa [6]): inactive
- Activity (HeLa [7]): Non-Toxic
- Activity [8]: Toxic
- Activity (TG40 cell [2]): inactive
- EC50 [9]: 9.03 µM
- Activity (HeLa [10]): Non-Toxic
- IC50 [12]: 11.6 µM
- Activity (HeLa [3]): Dose-Dependent Effect
- Activity [13]: Non-Toxic

SMILES: CC(C)=CCc1cc(/C=C/C=O)ccc1O
- Activity (HeLa [1]): inactive

SMILES: COc1cc(/C=C/C(C)=O)ccc1O
- Activity (HeLa [1]): inactive

SMILES: O=CC1=Cc2ccc(O)cc2OC1
- Activity (HeLa [1]): inactive

SMILES: CCCCCC/C(C=O)=C\c1ccccc1
- Activity (HeLa [1]): inactive

SMILES: COc1cc(C=O)ccc1O
- Activity (HeLa [1]): inactive

SMILES: CN(C)c1cc(/C=C/C=O)ccc1O
- Activity (HeLa [1]): inactive
